Measured values reported in patent US20170258769A1, “A Method for Topically Treating Actinic Keratosis on the Trunk (except chest) and Extremities with Ingenol 3-(3,5-diethylisoxazole-4-carboxylate)” (LEO Laboratories Limited, priority 2014, published 2017).

How the values were obtained:
dermal tumours = assay: in vivo studies in mice, effects on dermal tumours
Excerpt: The exact mechanism of action of ingenol 3-(3,5-diethylisoxazole-4-carboxylate) continues to be investigated, but it is believed that ingenol 3-(3,5-diethylisoxazole-4-carboxylate) has a dual mechanism of action inducing cell death as well as stimulation of immune response.

[1] = Part 1: dose escalation trial, gel once daily for two consecutive days, dose limiting toxicity based on local skin reactions; type: in vivo, human
Excerpt: Local skin reactions (LSRs) occur sometimes in the treated area. Often LSRs are quantified by a scale evaluating the following types of skin reactions: erythema, flaking/scaling, crusting, swelling, vasiculation/postulation, and erosion/ulceration which are categorized into categories 0-4 depending on the severity of the reactions. The present invention utilizes data obtained from a previous dose escalation trial, wherein maximal tolerated doses were identified.
In the trial pre-defined grades of LSRs will constitute Dose Limiting Toxicity.
Dose Limiting toxicity (DLT) is defined one or more of the following LSRs: • crusting Grade 4 • Erosion/ulceration Grade 4 • vesiculation/postulation Grade 4 or
Two or more of the following LSRs: • Crusting Grade 3 • Swelling grade 4 • Erosion/ulceration Grade 3 • vesiculation/postulation Grade 3 or • other clinically relevant signs or symptoms observed, which the Investigator judges to be counted as a DLT. Maximum tolerated dose (MTD) is declared as dose level at which less than 4 subjects out of experience a DLT of cohort of 12 subjects.
Part 1 was a dose escalation study conducted with a once daily application of trial medication for two consecutive days and continued until the MTD was identified.
Dose escalation proceeded if the safety and tolerability data of the subject up to day 8 was reviewed and considered satisfactory. The treatment consisted of once daily treatment for 2 consecutive days. Up to 5 different doses may be investigated in cohorts of 1 subject. The number of subjects in each cohort depended on the number of observed DLTs. However, the MTD was always be confirmed in a cohort of 12 subjects. […] Part 2 is a study of the efficacy of the 0.1% dose identified in part 1 in a three day regimen.
Part 1: Trial medication, ingenol 3-(3,5-diethylisoxazole-4-carboxylate) gel, will be applied to the treatment area once daily for two consecutive days until the maximum tolerated dose has been reached for each formulation. Up to five different doses of active compound in gel may be investigated in cohorts 12 subjects. […]

actinic keratosis = assay: Part 2: open-label trial, 0.1% gel once daily for three consecutive days on trunk (except chest) and extremities; type: in vivo, human
Excerpt: The outcome for Part 2 is safety and efficacy in a once daily application for three consecutive days on the trunk (except chest) and extremities. The efficacy in treating of the AK will be measured as reduction in AK count in the treated area of lesions which are not considered hyperkeratotic/hypertrophic.
In parallel the efficacy in treating of the AK will be measured as reduction in AK count in the treated area of lesions which are considered hyperkeratotic/hypertrophic.
The reduction in AK count will be performed at week 4 and 8 no matter the type of lesion. Also complete clearance of AKs in the treated area which are not considered hyperkeratotic/hypertrophic at week 8 will be measured.
The trial medication applied is preferably a gel. The gel formulation comprises: isopropyl alcohol, hydroxyethyl cellulose, benzyl alcohol, citric acid monohydrate, sodium citrate dehydrate and water and active compound in a 0.1% concentration. For this particular trial, the dosing is two unit dose tubes daily, each containing 0.67 g.
To qualify for part 2 of the trial, the subjects must have 5-20 clinically visible and discrete AKs within a contiguous are of approximately 250 cm^2 area on the trunk (except chest) and extremities. In addition to the requirement of 5-20 clinically typical, visible and discrete AKs within the selected treatment area, subjects may also have visible and discrete hyperkeratotic/hypertrophic lesions in this area. The subjects will be treated with a dose of 0.1% as a once daily three consecutive days treatment and followed for 8 weeks.
The trial consists of an initial part, where 18 subjects will be treated on the trunk (except chest) and extremities. […] As this is a safety trial, it is considered justified to conduct this clinical trial as an open-label, uncontrolled trial. An early safety and tolerability evaluation will be performed following the 3 days treatment. If safety and tolerability is found acceptable by the Early Data Review Committee, and additional 44 subjects will be enrolled in order to expand safety observations and obtain an estimate of treatment efficacy.
LSRs are evaluated at all visits following visit 1. AK lesion counts are performed on Visit 2, 6 and 7.
tactile) assessment of the extent of photo-damage in the treatment area with respect to 1) fine wrinkling, 2) coarse wrinkling, 3) mottled pigmentation, 4) roughness, 5) sallowness, 6) skin laxity, and 7) telangiectasia. Severity for each of these characteristics will be on a 5-point scale: None (0), Mild (1), Moderate (2), Severe (3), Extreme (4).
At Visit 7 (Week 8) the Investigator will make an overall clinical (visual and tactile) assessment of the subject's photo-damage change from baseline in the treatment area (including an integrated assessment of fine wrinkling, coarse wrinkling, mottled pigmentation, roughness, sallowness, skin laxity, and telangiectasia based on the subject's appearance at the baseline visit).
At Visit 7 (Week 8), the subjects will complete a self-assessment questionnaire evaluating the change in the 1) overall appearance of the skin and 2) overall feel of the skin after treatment. The scoring will be on a 5-point scale: Much worsened, somewhat worsened, no change, somewhat improved, much improved.
The secondary response criteria will be analysed for the full analysis set and for the per protocol analysis set. The ratio of number of AK lesions at week 8 relative to baseline, excluding lesions identified at base line as hyperkeratotic/hypertrophic lesions, will be tabulated by treatment group. Separately for each treatment group, the rate and corresponding 95% confidence interval will be estimated from a negative binomial regression on the AK count at week 8 with the log baseline value as an offset variable. The same analysis will be performed for the subgroup of lesions identified as hyperkeratotic/hypertrophic at baseline. […]

[2] = highest dose 0.1%, once daily for 2 consecutive days

CCc1noc(CC)c1C(=O)O[C@H]1C(C)=C[C@]23C(=O)[C@@H](C=C(CO)[C@@H](O)[C@]12O)[C@H]1[C@@H](C[C@H]3C)C1(C)C [ingenol 3-(3,5-diethylisoxazole-4-carboxylate)]
efficacy in eliminating dermal tumours, compared with ingenol mebutate (dermal tumours): more efficacious than ingenol mebutate
dose limiting toxicity (DLT) [1, 2]: no real DLT was identified
tolerability [1, 2]: well tolerated
tolerability with respect to LSRs and application site reaction ([1]; selected dose (0.1%), two days dosing regimen): well tolerated
side-effects (actinic keratosis; 0.1% gel, once daily three consecutive days): acceptable
reduction in AK count (actinic keratosis; 0.1% gel, once daily three consecutive days, approx. 250 cm^2 area, week 8, 62 patients): 59%
complete clearance (actinic keratosis; 0.1% gel, once daily three consecutive days, week 8): 23%
time at which side-effects maximize (actinic keratosis; 0.1% gel, once daily three consecutive days, rapid decline thereafter): 4 days
cosmetic outcome of the treatment (actinic keratosis; 0.1% gel, three day regimen): good
patients with photo damage improved (actinic keratosis; investigator assessment, fraction of patients): two-thirds
subjects reporting improvement in appearance and feel (actinic keratosis; self-assessment by subject): more than 70%
